Data published in PubChem BioAssay (NCI).
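Protocol summary: plate cells (96-well), add compound at 5 concentrations, incubate 48 h, interpolate endpoints linearly. GI50: concentration for 50% inhibition of growth. The concentration for full growth arrest is given as TGI.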

How the values were obtained:
Experiment in all cases: NCI anticancer screen, dose series, 48 h
[1] = system: 786-0 renal
[2] = system: SK-MEL-2 melanoma
[3] = system: CAKI-1 renal
[4] = system: DU-145 prostate
[5] = system: A549 NSCLC
[6] = system: K-562 leukemia
[7] = system: SR leukemia
[8] = system: SK-MEL-5 melanoma
[9] = system: IGROV1 ovarian
[10] = system: CCRF-CEM leukemia
[11] = system: SF-268 CNS
[12] = system: RXF 393 renal
[13] = system: SK-MEL-28 melanoma
[14] = system: OVCAR-3 ovarian
[15] = system: UACC-62 melanoma
[16] = system: KM12 colon
[17] = system: SF-295 CNS
[18] = system: HOP-62 NSCLC
[19] = system: MALME-3M melanoma
[20] = system: SK-OV-3 ovarian
[21] = system: HS 578T breast
[22] = system: OVCAR-5 ovarian
[23] = system: MOLT-4 leukemia
[24] = system: HCC-2998 colon
[25] = system: UACC-257 melanoma
[26] = system: NCI-H522 lung
[27] = system: A498 renal
[28] = system: EKVX NSCLC
[29] = system: HOP-92 NSCLC
[30] = system: TK-10 renal
[31] = system: M14 melanoma
[32] = system: OVCAR-4 ovarian
[33] = system: SW-620 colon
[34] = system: HL-60(TB) leukemia
[35] = system: PC-3 prostate
[36] = system: HT29 colon
[37] = system: MDA-MB-435
[38] = system: T-47D breast
[39] = system: SNB-75 CNS
[40] = system: NCI-H460 lung
[41] = system: RPMI-8226 leukemia
[42] = system: SNB-19 CNS
[43] = system: NCI-H23 lung
[44] = system: OVCAR-8 ovarian
[45] = system: SF-539 CNS
[46] = system: NCI-H226 lung
[47] = system: COLO 205 colon
[48] = system: MDA-MB-231 breast
[49] = system: UO-31 renal
[50] = system: NCI/ADR-RES ovarian
[51] = system: HCT-116 colon
[52] = system: BT-549 breast
[53] = system: MCF7 breast

In the case of Fc1ccc(/C=N/n2c(-c3ccc(F)c(Cl)c3)n[nH]c2=S)cc1, the GI50 [1] was 19.6 µM, the TGI [1] was 38.3 µM and the GI50 [2] was 38.7 µM. It also gave a TGI [2] greater than 100 µM, a GI50 [3] of 47.8 µM and a TGI [3] greater than 100 µM. For the same compound, the GI50 [4] was 41.5 µM, the TGI [4] was greater than 100 µM and the GI50 [5] was 21.4 µM. The TGI [5] was 46 µM, the GI50 [6] was 19.3 µM and the TGI [6] was 36.6 µM. It also gave a GI50 [7] of 12.9 µM, a TGI [7] of 27.9 µM and a GI50 [8] of 42.9 µM. It also gave a TGI [8] greater than 100 µM, a GI50 [9] of 20.6 µM and a TGI [9] of 48.8 µM. For the same compound, the GI50 [10] was 32.2 µM, the TGI [10] was 96.6 µM and the GI50 [11] was 19.8 µM. The TGI [11] was 42.1 µM, the GI50 [12] was 21.2 µM and the TGI [12] was 39.9 µM. It also gave a GI50 [13] of 42.1 µM, a TGI [13] greater than 100 µM and a GI50 [14] of 18.3 µM. It also gave a TGI [14] of 37.3 µM, a GI50 [15] of 22.8 µM and a TGI [15] of 49 µM. For the same compound, the GI50 [16] was 43.6 µM, the TGI [16] was greater than 100 µM and the GI50 [17] was 31.7 µM. The TGI [17] was 76.8 µM, the GI50 [18] was 16.7 µM and the TGI [18] was 31.4 µM. The GI50 [19] was 18.3 µM, the TGI [19] was 60.2 µM and the GI50 [20] was 22 µM. For the same compound, the TGI [20] was 38.5 µM, the GI50 [21] was 28.8 µM and the TGI [21] was 97.3 µM. It also gave a GI50 [22] of 21.8 µM, a TGI [22] of 48.3 µM and a GI50 [23] of 25.4 µM. The TGI [23] was 94.6 µM, the GI50 [24] was 34.8 µM and the TGI [24] was greater than 100 µM. It also gave a GI50 [25] of 30.6 µM, a TGI [25] of 83 µM and a GI50 [26] of 23.3 µM. The TGI [26] was 52.2 µM, the GI50 [27] was 13.8 µM and the TGI [27] was 31 µM. The GI50 [28] was 32.3 µM, the TGI [28] was greater than 100 µM and the GI50 [29] was 15.1 µM. It also gave a TGI [29] of 34.6 µM, a GI50 [30] of 24.1 µM and a TGI [30] of 51 µM. The GI50 [31] was 23.8 µM, the TGI [31] was 71.6 µM and the GI50 [32] was 19.9 µM. For the same compound, the TGI [32] was 39.9 µM, the GI50 [33] was 30.2 µM and the TGI [33] was greater than 100 µM. It also gave a GI50 [34] of 34.8 µM, a TGI [34] greater than 100 µM and a GI50 [35] of 27.3 µM. For the same compound, the TGI [35] was greater than 100 µM, the GI50 [36] was 35.3 µM and the TGI [36] was greater than 100 µM. For the same compound, the GI50 [37] was 57.7 µM, the TGI [37] was greater than 100 µM and the GI50 [38] was 20.7 µM. The TGI [38] was 40.1 µM, the GI50 [39] was 15.3 µM and the TGI [39] was 30.1 µM. For the same compound, the GI50 [40] was 19.2 µM, the TGI [40] was 38.3 µM and the GI50 [41] was 19.8 µM. It also gave a TGI [41] of 43.2 µM, a GI50 [42] of 22.5 µM and a TGI [42] of 44.1 µM. For the same compound, the GI50 [43] was 18.8 µM, the TGI [43] was 38.2 µM and the GI50 [44] was 34.7 µM. The TGI [44] was greater than 100 µM, the GI50 [45] was 32 µM and the TGI [45] was greater than 100 µM. For the same compound, the GI50 [46] was 36.5 µM, the TGI [46] was 83.8 µM and the GI50 [47] was 37.3 µM. The TGI [47] was greater than 100 µM, the GI50 [48] was 20.2 µM and the TGI [48] was 38.9 µM. The GI50 [49] was 18.9 µM, the TGI [49] was 41.5 µM and the GI50 [50] was 23.4 µM. It also gave a TGI [50] of 59.4 µM, a GI50 [51] of 16.3 µM and a TGI [51] of 29.9 µM. It also gave a GI50 [52] of 78.5 µM, a TGI [52] greater than 100 µM and a GI50 [53] of 19.7 µM. The TGI [53] was 43 µM.
